Measured values as given in patent US20110123562A1, “ANTI-CANCER ACTIVE SUBSTANCE FROM ANTRODIA CAMPHORATA, METHOD FOR PREPARING THE SAME AND USE THEREOF” (priority 2009, published 2011).

Columns and labels:
Assay type in all cases: cell-based
[1] = test system: HepG2 cells; assay: Anti-proliferation of HepG2 cells, MTS assay
Procedure: (§1) HepG2 cells were obtained from American Type Culture Collection, ATCC, Rockville, Md., U.S.A. and were maintained in Williams medium E (WME), containing 10 mM/L HEPES, 5 μg/mL insulin, 2 μg/mL, glucagon, 0.05 μg/mL hydrocortisone, and 5% fetal bovine serum (Gibco Life Technologies, Grand Island, N.Y., USA). Colon cancer cells (CT26, BCRC 60443), prostate cancer cells (LNCaP, BCRC 60088) and breast cancer cells (MDA-MB-231, BCRC 60425) were obtained from the Biosources Collection and Research Center (BCRC) in the Food industry Research and Development Institute (Hsinchu, Taiwan).
HepG2 cells in WME were cultured on a 96-well cell culture plate (2.5×10^4cells per well) and incubate at 37° C. with 5% CO2. After 4 hours incubation, replace the medium with different concentrations of Antrodia camphorata sample extracts. The Antrodia camphorata extracts were dissolved in 1% dimethyl sulfoxide (DMSO) and mixed with WME medium so as to prepare extracts at different concentrations and the final concentration of DMSO was maintained below 1%. Control cultures contained only extraction solvents, and blank wells contained 100 μL growth medium with no cells. After 72 and 96 h of incubation, cell proliferation was determined by MTS assay (MTS-based cell titer 96 non-radioactivity cell proliferation assay, Promega, Madison, Wis., U.S.A.) so as to examine the anti-hepatoma activity. MTS is a colorimetric method utilizing a tetrazolium reagent. Cell proliferation was determined at 72 and 96 h from the MTS absorbance reading at 490 nm for each concentration compared with the control. […] The EC50 of a sample is defined as the median effective dose of a sample (the concentration of the sample which results in 50% of cell viability) after treating the cancer cells for a certain period of time. At least three replications of each sample were tested to confirm cell proliferation and cytotoxicity. The selective effect on cancer cells was expressed as SI (selective index) value. The SI value was determined as the ratio of CC50 versus EC50 for a tested sample.

[2] = test system: prostate cancer cells (LNCaP); assay: Anti-proliferative activity against prostate cancer cells
Procedure: as §1
(§2) HepG2 cells in WME were cultured on a 96-well cell culture plate (2.5×10^4cells per well) and incubate at 37° C. with 5% CO2. After 4 hours incubation, replace the medium with different concentrations of Antrodia camphorata sample extracts. […] After 72 and 96 h of incubation, cell proliferation was determined by MTS assay (MTS-based cell titer 96 non-radioactivity cell proliferation assay, Promega, Madison, Wis., U.S.A.) so as to examine the anti-hepatoma activity. […] Cell proliferation was determined at 72 and 96 h from the MTS absorbance reading at 490 nm for each concentration compared with the control. […] The selective effect on cancer cells was expressed as SI (selective index) value. The SI value was determined as the ratio of CC50 versus EC50 for a tested sample.

[3] = test system: breast cancer cells (MDA-MB-231); assay: Anti-proliferative activity against breast cancer cells; details: MDA-MB-231 breast cancer cells
Procedure: as §1, §2

[4] = test system: colon cancer cells (CT26); assay: Anti-proliferative activity against colon cancer cells
Procedure: as §1, §2

[5] = test system: HepG2 cells; assay: Cytotoxicity (CC50) on HepG2 cells, MTS assay; details: concentration reducing cell viability to 50% of control in 24 h
Procedure: as §1, §2

4-acetylantroquinonol B was tested, and the “anti-proliferative activity compared to crude extract” value [1] was 50 times, the “EC50 72 hours” value ([1]; 72 h treatment, MTS) was 0.1 µg/mL and the “EC50 96 hours” value ([1]; 96 h treatment, MTS) was 0.08 µg/mL. For the same substance, the IC50 [2] was 16.841 ± 3.41 µg/mL, the cell viability [2] was “below 50%” and the IC50 [3] was 0.091 µg/mL. For the same substance, the cell viability [3] was “below 50%”, the IC50 [4] was 48.12 ± 5.61 µg/mL and the cell viability [4] was “below 50%”. It also gave a CC50 [5] greater than 10 µg/mL.
